Results published in US20090311344A1, “Dosing Regimen” (priority 2008, published 2009).
Entries after “also recorded” stand apart in the source; their conditions may differ.

How the values were obtained:
[1] = tested on: HT-29 human colon carcinoma xenografts; assay: HT-29 human colon carcinoma xenografts in athymic nude mice: tumor growth delay; type: in vivo
Description: Administration of the TPO Mimetic Peptide Compound One Hour After Administration of Carboplatin. Effect on activity and toxicity of carboplatin against HT-29 human colon carcinoma xenografts established in athymic nude mice.
Five groups (n=10) of female athymic nude mice (Harlan) bearing established (˜100 mm^3) HT-29 human colon carcinomas on Day 1. Groups 6-9 (n=20) were included for blood sampling and received the same treatment as Groups 1-4, respectively. Treatment effects on the growth of tumors were evaluated by tumor growth delay (TGD), which is the difference between median time to endpoint (TTE) tumor size in a treatment group compared to a control group. The effect of these treatments on platelet and erythrocyte precursors was determined from CBC analysis and reticulocyte counts of blood samples taken on Days 10, 13, 21 and 24.
Xenografts were initiated from HT-29 human colon carcinoma xenografts maintained in athymic nude mice. HT-29 tumor fragments (1 mm^3) were implanted subcutaneously into the right flank of each test mouse, and tumor growth was monitored. On Day 1 of the study, the animals were pair-matched into five groups (Groups 1-5) for evaluation of efficacy and four groups for sampling (Groups 6-9). Groups 1-5 each consisted of ten animals with tumor sizes ranging from 75-126 mm^3 and group mean tumor sizes of 99 mm^3. Groups 6-9 each consisted of twenty animals with tumor sizes ranging from 40-221 mm^3 and group mean tumor sizes of 84 mm^3. Tumor weight was estimated with the assumption that 1 mg is equivalent to 1 mm^3 of tumor volume. Volume was calculated using the formula:
Group 1 mice (n=10) were untreated tumor growth controls. Group 2 mice (n=10) received 60 mg/kg carboplatin administered intraperitoneally (i.p.) on Days 1, 2, 12, and 13. Group 3 mice (n=10) received 0.2 mg/kg of the TPO mimetic peptide compound administered intravenously (i.v.) via tail vein on Days 2 and 13. Groups 4 and 5 received the combination of carboplatin (60 mg/kg i.p. on Days 1, 2, 12, and 13) and 0.2 mg/kg of the TPO mimetic peptide compound on Days 2, 13 and Days 2, 13, 23, respectively, administered intravenously (i.v.) one hour after carboplatin dosing. Groups 6-9 (n=20 each) were included for blood sampling and received the same treatments as Groups 1-4, respectively. For all groups, each dose of drug was given in a volume of 0.2 mL per 20 g of body weight (10 mL/kg), and was scaled to the body weight of each animal.
Tumors were measured twice each week using calipers. Each animal was euthanized when its tumor reached the predetermined endpoint size of 1000 mm^3, or on the final day of the study (Day 62), whichever came first. The time to endpoint (TTE) for each mouse was calculated from the following equation: […]
where b is the intercept and m is the slope of the line obtained by linear regression of a log-transformed tumor growth data set. The data set was comprised of the first observation that exceeded the study endpoint volume and the three consecutive observations that immediately preceded the attainment of the endpoint volume.
Treatment outcome was determined from tumor growth delay (TGD), which is defined as the increase in the median time to endpoint (TTE) in a treatment group compared to the control group:
where: • T=median TTE for a treatment group, • C=median TTE for the control group (Group 1)
Treatment may cause partial regression (PR) or complete regression (CR) of the tumor in an animal. In a PR response, the tumor volume is 50% or less of its Day 1 volume for three consecutive measurements during the course of the study, and equal to or greater than 13.5 mm^3 for one or more of these three measurements. In a CR response, the tumor volume is less than 13.5 mm^3 for three consecutive measurements during the course of the study. An animal with a CR response at the termination of a study is additionally classified as a long-term tumor-free survivor (LTTFS). […]

[2] = Single dose study in healthy subjects: safety, tolerability, antibodies; type: in vivo, human
Procedure: See, e.g., U.S. patent application Ser. No. 11/354,065, filed Feb. 14, 2006, the entire contents of which are incorporated herein by reference.
Single i.v. doses of the TPO mimetic peptide compound up to and including 3 μg/kg were well-tolerated in healthy male subjects, with no apparent drug-related effects on adverse events, or cardiovascular or laboratory safety parameters (excluding platelet counts). Antibodies against the TPO mimetic peptide compound were not apparent in any post dose samples.

[3] = tested on: platelet count; assay: Multiple dose study in cancer subjects receiving platinum-based chemotherapy: platelet counts; type: in vivo, human; conditions: for Maximum Platelet Counts, Geometric Mean: in 10^9/L (unit assumed)
Description: (§1) A total of 7 subjects were excluded from the preliminary statistical analysis of Day 42 platelet count data and 9 subjects were excluded from the preliminary statistical analysis of Day 42 hemoglobin data due to either incorrect randomization, platelet transfusion, not administered the 2nd dose of study medication, or lost to follow-up.

[4] = tested on: hemoglobin; assay: Multiple dose study in cancer subjects receiving platinum-based chemotherapy: hemoglobin; type: in vivo, human; conditions: Day 42
Description: as §1

[5] = addition of up to 3 cycles to carboplatin therapy

**Q.** For “Methoxypolyethyleneglycol20000-propionyl-L-Isoleucyl-L-Glutamyl-Glycyl-L-Prolyl-L-Threonyl-L-Leucyl-L-Arginyl-L-Glutaminyl-L-2-Naphthylalanyl-L-Leucyl-L-Alanyl-L-Alanyl-L-Arginyl-Sarcosyl-Ne-(methoxypolyethyleneglycol20000-propionyl-L-Isoleucyl-L-Glutamyl-Glycyl-L-Prolyl-L-Threonyl-L-Leucyl-L-Arginyl-L-Glutaminyl-L-2-Naphthylalanyl-L-Leucyl-L-Alanyl-L-Alanyl-L-Arginyl-Sarcosyl-)-Lysinamide [TPO mimetic peptide compound]”, which “TGD (tumor growth delay)” value ([1]; Groups 2-4, relative to untreated Group 1, carboplatin 60 mg/kg i.p. Days 1, 2, 12, 13, TPO mimetic peptide compound 0.2 mg/kg i.v. Days 2, 13) is on record?
**A.** 8.1 days

**Q.** And the “% Tumor Growth Delay” value ([1]; HT-29 xenografts, athymic nude mice, n=10, carboplatin 60 mg/kg i.p. Days 1, 2, 12, 13, TPO mimetic peptide compound 0.2 mg/kg i.v. Days 2, 13, Groups 2-4, vs untreated Group 1)?
**A.** 33%

**Q.** And the “Median TTE” value ([1]; HT-29 xenografts, athymic nude mice, n=10, carboplatin 60 mg/kg i.p. Days 1, 2, 12, 13, TPO mimetic peptide compound 0.2 mg/kg i.v. Days 2, 13, Groups 2-4, endpoint 1000 mm^3)?
**A.** 32.9 days

**Q.** And the “effect on tumor growth” value ([1]; TPO mimetic peptide compound administration alone)?
**A.** did not enhance tumor growth

**Q.** What about the “impact on tumor growth delay” value [1, 5] of the same substance?
**A.** no negative impact on tumor growth delay

**Q.** What about the “survival compared with carboplatin treatment alone” value [1, 5] of the same substance?
**A.** small increase in survival; also recorded: small advantage in survival

**Q.** What about the safety and tolerability ([2]; healthy male subjects, single i.v. doses 0.375 to 3 μg/kg) of the same substance?
**A.** safe and generally well tolerated

**Q.** What about the “antibodies against the TPO mimetic peptide compound” value ([2]; healthy subjects, post dose samples) of the same substance?
**A.** not apparent; also recorded: no evidence of antibody formation

**Q.** What about the course of platelets ([3]; 1.5 μg/kg dose) of the same substance?
**A.** continued to decline up to Day 15

**Q.** And the “platelets as compared to the placebo subjects” value ([3]; 1.5 μg/kg dose)?
**A.** no apparent difference

**Q.** What about the “day of mean peak platelets” value ([3]; 3.0 μg/kg dose) of the same substance?
**A.** 15 days

**Q.** And the “subjects with platelet increase of more than 3 times the baseline (≧3-fold)” value ([3]; 1.5 and 2.25 μg/kg dose)?
**A.** no subjects; also recorded: none of the subjects

**Q.** What about the “day of peak platelets” value ([3]; 2.25 and 1.5 μg/kg doses) of the same substance?
**A.** 21 days

**Q.** And the “platelet nadir and peak platelet counts relative to placebo” value ([3]; 2.25 and 3 μg/kg dose)?
**A.** approximately 2 fold

**Q.** And the “day of mean platelet nadir” value ([3]; 2.25 and 3 μg/kg dose groups)?
**A.** 10 days

**Q.** And the “platelet count as compared with placebo” value ([3]; 2.25 and 3 μg/kg doses)?
**A.** reduction in chemotherapy-induced decline in platelets and faster recovery relative to placebo; also recorded: increased platelet count

**Q.** What about the “Maximum Platelet Counts, GMR (Active/Placebo)” value ([3]; Across, 1.5 μg/kg) of the same substance?
**A.** 1.0

**Q.** And the “Minimum Platelet Counts, GMR (Active/Placebo)” value ([3]; Across, 1.5 μg/kg)?
**A.** 0.6

**Q.** And the “Minimum Platelet Counts, Geometric Mean” value ([3]; Across, 1.5 μg/kg)?
**A.** 33.99

**Q.** What about the “Maximum Platelet Counts, Geometric Mean” value ([3]; Across, 1.5 μg/kg) of the same substance?
**A.** 371.53

**Q.** What about the “Maximum Platelet Counts, GMR (Active/Placebo)” value ([3]; Across, 2.25 μg/kg) of the same substance?
**A.** 1.6

**Q.** And the “Minimum Platelet Counts, GMR (Active/Placebo)” value ([3]; Across, 2.25 μg/kg)?
**A.** 2.7

**Q.** What about the “Minimum Platelet Counts, Geometric Mean” value ([3]; Across, 2.25 μg/kg) of the same substance?
**A.** 163.71

**Q.** And the “Maximum Platelet Counts, Geometric Mean” value ([3]; Across, 2.25 μg/kg)?
**A.** 570.39

**Q.** What about the “Maximum Platelet Counts, GMR (Active/Placebo)” value ([3]; Across, 3.0 μg/kg) of the same substance?
**A.** 1.8

**Q.** What about the “Minimum Platelet Counts, GMR (Active/Placebo)” value ([3]; Across, 3.0 μg/kg) of the same substance?
**A.** 2.0

**Q.** What about the “Minimum Platelet Counts, Geometric Mean” value ([3]; Across, 3.0 μg/kg) of the same substance?
**A.** 121.61

**Q.** And the “Maximum Platelet Counts, Geometric Mean” value ([3]; Across, 3.0 μg/kg)?
**A.** 633.09

**Q.** And the “Maximum Platelet Counts, GMR (Active/Placebo)” value ([3]; Cycle 1, 1.5 μg/kg)?
**A.** 1.1

**Q.** And the “Minimum Platelet Counts, GMR (Active/Placebo)” value ([3]; Cycle 1, 1.5 μg/kg)?
**A.** 0.5

**Q.** And the “Minimum Platelet Counts, Geometric Mean” value ([3]; Cycle 1, 1.5 μg/kg)?
**A.** 47.01

**Q.** What about the “Maximum Platelet Counts, Geometric Mean” value ([3]; Cycle 1, 1.5 μg/kg) of the same substance?
**A.** 331.25

**Q.** And the “Maximum Platelet Counts, GMR (Active/Placebo)” value ([3]; Cycle 1, 2.25 μg/kg)?
**A.** 1.8

**Q.** And the “Minimum Platelet Counts, GMR (Active/Placebo)” value ([3]; Cycle 1, 2.25 μg/kg)?
**A.** 2.3

**Q.** What about the “Minimum Platelet Counts, Geometric Mean” value ([3]; Cycle 1, 2.25 μg/kg) of the same substance?
**A.** 213.46

**Q.** And the “Maximum Platelet Counts, Geometric Mean” value ([3]; Cycle 1, 2.25 μg/kg)?
**A.** 557.78

**Q.** And the “Maximum Platelet Counts, GMR (Active/Placebo)” value ([3]; Cycle 1, 3.0 μg/kg)?
**A.** 2.1

**Q.** What about the “Minimum Platelet Counts, GMR (Active/Placebo)” value ([3]; Cycle 1, 3.0 μg/kg) of the same substance?
**A.** 2.0

**Q.** And the “Minimum Platelet Counts, Geometric Mean” value ([3]; Cycle 1, 3.0 μg/kg)?
**A.** 191.17

**Q.** And the “Maximum Platelet Counts, Geometric Mean” value ([3]; Cycle 1, 3.0 μg/kg)?
**A.** 641.56

**Q.** And the “Maximum Platelet Counts, GMR (Active/Placebo)” value ([3]; Cycle 2, 1.5 μg/kg)?
**A.** 1.0

**Q.** And the “Minimum Platelet Counts, GMR (Active/Placebo)” value ([3]; Cycle 2, 1.5 μg/kg)?
**A.** 1.0

**Q.** And the “Minimum Platelet Counts, Geometric Mean” value ([3]; Cycle 2, 1.5 μg/kg)?
**A.** 75.10

**Q.** What about the “Maximum Platelet Counts, Geometric Mean” value ([3]; Cycle 2, 1.5 μg/kg) of the same substance?
**A.** 290.55

**Q.** And the “Maximum Platelet Counts, GMR (Active/Placebo)” value ([3]; Cycle 2, 2.25 μg/kg)?
**A.** 1.4

**Q.** What about the “Minimum Platelet Counts, GMR (Active/Placebo)” value ([3]; Cycle 2, 2.25 μg/kg) of the same substance?
**A.** 2.2

**Q.** And the “Minimum Platelet Counts, Geometric Mean” value ([3]; Cycle 2, 2.25 μg/kg)?
**A.** 175.08

**Q.** What about the “Maximum Platelet Counts, Geometric Mean” value ([3]; Cycle 2, 2.25 μg/kg) of the same substance?
**A.** 397.37

**Q.** And the “Maximum Platelet Counts, GMR (Active/Placebo)” value ([3]; Cycle 2, 3.0 μg/kg)?
**A.** 1.4

**Q.** And the “Minimum Platelet Counts, GMR (Active/Placebo)” value ([3]; Cycle 2, 3.0 μg/kg)?
**A.** 2.2

**Q.** And the “Minimum Platelet Counts, Geometric Mean” value ([3]; Cycle 2, 3.0 μg/kg)?
**A.** 170.16

**Q.** What about the “Maximum Platelet Counts, Geometric Mean” value ([3]; Cycle 2, 3.0 μg/kg) of the same substance?
**A.** 401.20

**Q.** What about the “platelet elevations in the second cycle” value ([3]; all subjects) of the same substance?
**A.** below 3 times the baseline

**Q.** What about the “day of maximum effect on platelet count after administration” value ([3]; human, in vivo) of the same substance?
**A.** 15 days

**Q.** What about the “increase in platelet count relative to baseline” value ([3]; second cycle, 3.0 μg/kg dose) of the same substance?
**A.** approximately 2 fold

**Q.** What about the “Change From Baseline in Hemoglobin, LS Mean (SE)” value ([4]; 1.5 μg/kg) of the same substance?
**A.** −1.63 (0.50)

**Q.** What about the “Change From Baseline in Hemoglobin, Diff of LS Mean (SE) vs Placebo” value ([4]; 2.25 μg/kg) of the same substance?
**A.** 0.57 (0.57)

**Q.** What about the “Change From Baseline in Hemoglobin, LS Mean (SE)” value ([4]; 2.25 μg/kg) of the same substance?
**A.** −1.60 (0.42)
